From patent US20090053199A1, “Stable Dairy Components Effective for Fat Loss” (priority 2005, published 2009)

Test system: transgenic mice expressing agouti specifically in adipocytes under the control of the aP2 promoter
Assay: Example 2: weight, fat pad and muscle mass after six weeks on diets including fresh whey products
Type: in vivo
Conditions: Example 2, FIG. 11, 1 = Ad Lib, 2 = loCa, 3 = milk, 4 = fresh whey protein, 5 = casein, 6 = soy, 7 = fresh whey mineral, 8 = fresh whey mineral/ACE
Excerpt: The same animals were used as in Example 1. […] All diets had 25% fat (lard+soy oil), with sucrose as sole carbohydrate and the proteins indicated as the sole protein source. Group 1 continued for 6 weeks on the above diet ad libitum. Groups 2-8 continued for six weeks on a restricted diet (70% of the ad libitum energy intake). […] Group 8 used a fresh whey mineral isolate with a whey-derived ACE-inhibitor (e.g., BIPRO). During the six weeks, body weight, food intake and core temperature were measured weekly. […] Specifically, core temperature was monitored weekly as an indirect metabolic index using a thermocouple, and fasting insulin (by radioimmunoassay), leptin (by radioimmunoassay) and glucose (by glucose oxidase) levels were assessed at baseline and at weeks 2, and 6. At the conclusion of the study, all mice were sacrificed under isofluorane anaesthesia and individual subcutaneous and visceral fat depots were excised and weighed for comparison of fat accumulation among the groups and assessment of adipocyte size and number via a Coulter Counter method. Aliquots of adipose tissue were then immediately frozen in liquid nitrogen for subsequent study of gene expression.

O=C([O-])[O-].[Ca+2] [calcium carbonate]
gastrocnemius muscle mass (most to least), Benefit Ranking: did not modify or attenuate this decrease
